Columns and labels:
Staphylococcus aureus [1] = assay: Antimicrobial activity against Staphylococcus aureus USA300 isolate harboring pSK41 plasmid expressing ermC gene assessed resistant isolates; assay type: functional
Staphylococcus aureus [2] = assay: Antimicrobial activity against Staphylococcus aureus USA300 isolate harboring pSK41 plasmid assessed resistant isolates; assay type: functional
Staphylococcus aureus [3] = assay: Antimicrobial activity against Staphylococcus aureus USA300 isolate harboring pSK41 plasmid expressing tetK gene assessed resistant isolates; assay type: functional
Staphylococcus aureus [4] = assay: Antimicrobial activity against Staphylococcus aureus USA300 isolate harboring pSK41 plasmid expressing aac'-aph'''' gene assessed resistant isolates; assay type: functional, organism-based

Row | Compound | Activity (Staphylococcus aureus [2]) [%] | also measured
1 | CCC[C@@H]1C[C@@H](C(=O)N[C@@H]([C@H]2O[C@H](SC)[C@H](O)[C@@H](O)[C@H]2O)[C@H](C)Cl)N(C)C1 [CLINDAMYCIN] | – | Activity (Staphylococcus aureus [1]): 6.2%
2 | CC[C@H]1OC(=O)[C@H](C)[C@@H](O[C@H]2C[C@@](C)(OC)[C@@H](O)[C@H](C)O2)[C@H](C)[C@@H](O[C@@H]2O[C@H](C)C[C@H](N(C)C)[C@H]2O)[C@](C)(O)C[C@@H](C)C(=O)[C@H](C)[C@@H](O)[C@]1(C)O [ERYTHROMYCIN] | 85 | –
3 | C[C@H]1COc2c(N3CCN(C)CC3)c(F)cc3c(=O)c(C(=O)O)cn1c23.C[C@H]1COc2c(N3CCN(C)CC3)c(F)cc3c(=O)c(C(=O)O)cn1c23.O [LEVOFLOXACIN] | 45 | –
4 | Cc1onc(-c2ccccc2)c1C(=O)N[C@@H]1C(=O)N2[C@@H]1SC(C)(C)[C@@H]2C(=O)O [OXACILLIN] | 100 | –
5 | CC1(C)S[C@@H]2[C@H](NC(=O)Cc3ccccc3)C(=O)N2[C@H]1C(=O)O [PENICILLIN G] | 100 | –
6 | CN(C)[C@@H]1C(O)=C(C(N)=O)C(=O)[C@@]2(O)C(O)=C3C(=O)c4c(O)cccc4[C@@](C)(O)[C@H]3C[C@@H]12 [TETRACYCLINE] | – | Activity (Staphylococcus aureus [3]): 8.4%
7 | GENTAMICIN | – | Activity (Staphylococcus aureus [4]): 1%

— ChEMBL document CHEMBL1671712, “Emergence of resistance among USA300 methicillin-resistant Staphylococcus aureus isolates causing invasive disease in the United States” (2010)
